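Five concentrations, 48 hours, 96-well plates. Here, GI50 denotes the concentration required for 50% inhibition of growth.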 Active and inactive are the calls of the source. Rule as the data show it: active = GI50 up to about 1.1 µM and inactive = higher.
Columns and labels:
Assay in all cases: NCI anticancer screen, dose series, 48 h
BT-549 = system: BT-549
DU-145 = system: DU-145
HCC 2998 = system: HCC 2998
HOP-92 = system: HOP-92
Hs-578T = system: Hs-578T
MCF7 = system: MCF7
MDA-MB-231 = system: MDA-MB-231
MDA-MB-435 = system: MDA-MB-435
Malme-3M = system: Malme-3M
NCI-H226 = system: NCI-H226
NCI/ADR-RES = system: NCI/ADR-RES
PC-3 = system: PC-3
RPMI-8226 = system: RPMI-8226
RXF 393 = system: RXF 393
SK-OV-3 = system: SK-OV-3
T47D = system: T47D
TK-10 = system: TK-10
ACHN = system: ACHN

Measured: GI50

O=C1Cc2c(-c3ccccc3)cc(-c3cccc(Cl)c3)nc2-c2ccccc2N1
inactive: BT-549 6.61 µM | DU-145 2.61 µM | HCC 2998 2.09 µM | HOP-92 1.34 µM | Hs-578T 2.09 µM | MCF7 2.22 µM | MDA-MB-231 1.15 µM | MDA-MB-435 8.91 µM | Malme-3M 3.82 µM | NCI-H226 4.63 µM | NCI/ADR-RES 2.05 µM | PC-3 5.97 µM | RPMI-8226 15.7 µM | RXF 393 2.15 µM | SK-OV-3 1.86 µM | T47D 2.05 µM | TK-10 1.49 µM

COP(=O)(OC)[C@H](O)[C@H]1C[C@@H]1c1ccccc1
inactive: ACHN > 100 µM | BT-549 > 100 µM | DU-145 > 100 µM | HCC 2998 > 100 µM | HOP-92 17.4 µM | Hs-578T 18.9 µM | MCF7 > 100 µM | MDA-MB-231 > 100 µM | MDA-MB-435 > 100 µM | Malme-3M > 100 µM | NCI-H226 > 100 µM | NCI/ADR-RES > 100 µM | PC-3 > 100 µM | RPMI-8226 > 100 µM | RXF 393 > 100 µM | SK-OV-3 > 100 µM | T47D > 100 µM | TK-10 > 100 µM

COc1cc(C)cc2c1C(=O)C(NC(C)=O)=CC2=O
inactive: ACHN > 100 µM | BT-549 > 100 µM | DU-145 > 100 µM | HCC 2998 > 100 µM | HOP-92 99.8 µM | Hs-578T 55.1 µM | MCF7 67.1 µM | MDA-MB-231 98.4 µM | MDA-MB-435 17.3 µM | Malme-3M > 100 µM | NCI-H226 > 100 µM | NCI/ADR-RES > 100 µM | PC-3 > 100 µM | RPMI-8226 > 100 µM | RXF 393 > 100 µM | SK-OV-3 > 100 µM | T47D 59.3 µM | TK-10 > 100 µM

COc1cc(CCCl)c(CC2=NCCc3cc(OC)c(OC)cc32)cc1OC
inactive: ACHN > 100 µM | BT-549 > 100 µM | DU-145 > 100 µM | HCC 2998 61 µM | HOP-92 > 100 µM | Hs-578T 14.9 µM | MCF7 88.9 µM | MDA-MB-231 55.7 µM | MDA-MB-435 89.9 µM | NCI-H226 > 100 µM | NCI/ADR-RES > 100 µM | PC-3 41.1 µM | RPMI-8226 39.4 µM | RXF 393 32.3 µM | SK-OV-3 > 100 µM | T47D > 100 µM | TK-10 30.2 µM

Reference: ChEMBL document CHEMBL1201862, “PubChem BioAssay data set” (2004)
